Results as given in patent US20220324835A1 (Nurix Therapeutics, Inc., priority 2018, published 2022).

Legend:
Type in all cases: cell-based
[1] = test system: primary human total T-cells; test: T-cell activation assessed by CD69 expression
How it was run: (§1)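 Primary human T-cells (>95% CD3+, negative selection from PBMC) were pre-incubated with inhibitor (e.g. 10, 1.11, 0.123 μM; DMSO <0.1%) for 1 h at 37 °C. They were then stimulated 48 h with plate-bound OKT3 (coated at 10 μg/mL), alone or with 5 μg/mL soluble anti-CD28. Results are fold change over uninhibited, identically stimulated cells.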

[2] = test system: primary human total T-cells; test: T-cell activation assessed by cell proliferation (Cell Trace Violet)
How it was run: as §1

[3] = test system: primary human total T-cells; test: T-cell activation assessed by cytokine secretion (GM-CSF, IFNγ, TNFα)
How it was run: as §1

[4] = CD3/CD28 stimulation, CD4 T-cells, read-out: % CD69+ (CD4)
[5] = CD3/CD28 stimulation, CD8 T-cells, read-out: % CD69+ (CD8)
[6] = CD3 alone stimulation, CD4 T-cells, read-out: % CD69+ (CD4)
[7] = CD3 alone stimulation, CD8 T-cells, read-out: % CD69+ (CD8)
[8] = CD3/CD28 stimulation, CD4 T-cells, read-out: % CP (cell proliferation) (CD4)
[9] = CD3/CD28 stimulation, CD8 T-cells, read-out: % CP (cell proliferation) (CD8)
[10] = CD3 alone stimulation, CD8 T-cells, read-out: % CP (cell proliferation) (CD8)
[11] = CD3/CD28 stimulation, read-out: GM-CSF secretion
[12] = CD3/CD28 stimulation, read-out: IFNγ secretion
[13] = CD3/CD28 stimulation, read-out: TNFα secretion
[14] = CD3 alone stimulation, read-out: GM-CSF secretion
[15] = CD3 alone stimulation, read-out: IFNγ secretion
[16] = CD3 alone stimulation, read-out: TNFα secretion

SMILES	fold induction at 1.11 µM [1, 4]	fold induction at 10 µM [1, 4]	fold induction at 1.11 µM [1, 5]	fold induction at 10 µM [1, 5]	fold induction at 1.11 µM [1, 6]	fold induction at 10 µM [1, 6]	fold induction at 1.11 µM [1, 7]	fold induction at 10 µM [1, 7]	fold induction at 1.11 µM [2, 8]	fold induction at 10 µM [2, 8]	fold induction at 1.11 µM [2, 9]	fold induction at 10 µM [2, 9]	fold induction at 1.11 µM [2, 10]	fold induction at 10 µM [2, 10]	fold induction at 1.11 µM [3, 11]	fold induction at 1.11 µM [3, 12]	fold induction at 1.11 µM [3, 13]	fold induction at 10 µM [3, 11]	fold induction at 10 µM [3, 12]	fold induction at 10 µM [3, 13]	also measured
Cn1cnnc1CC1(c2cccc(N3Cc4c(cc(CN5CC[C@H](C#N)C5)cc4C(F)(F)F)C3=O)c2)COC1 [Compound 422, (S)-1-((2-(3-(3-((4-methyl-4H-1,2,4-triazol-3-yl)methyl)oxetan-3-yl)phenyl)-3-oxo-7-(trifluoromethyl)isoindolin-5-yl)methyl)pyrrolidine-3-carbonitrile]	1.2 to 1.4	1.4 to 1.6	1.2 to 1.4	1.2 to 1.4	> 1.6	> 1.6	1.2 to 1.4	1.4 to 1.6	> 4	> 4	2.01 to 3	3.01 to 4	3.01 to 4	> 4	2.01 to 4	3.01 to 4	2.01 to 4	> 4	> 4	2.01 to 4	fold induction at 1.11 µM [3, 14]: 2.01 to 4; fold induction at 1.11 µM [3, 15]: < 2; fold induction at 1.11 µM [3, 16]: ≤ 1.5; fold induction at 10 µM [3, 14]: 2.01 to 4; fold induction at 10 µM [3, 15]: 3.01 to 4; fold induction at 10 µM [3, 16]: 1.51 to 2
Cn1cnnc1C(F)(F)[C@](C)(F)c1cccc(N2Cc3c(cc(C(=O)N4CC[C@H](O)C4)cc3C(F)(F)F)C2=O)c1 [Compound 438, 6-((S)-3-hydroxypyrrolidine-1-carbonyl)-2-(3-((R)-1,1,2-trifluoro-1-(4-methyl-4H-1,2,4-triazol-3-yl)propan-2-yl)phenyl)-4-(trifluoromethyl)isoindolin-1-one]	1.2 to 1.4	1.4 to 1.6	≤ 1.2	1.2 to 1.4	1.2 to 1.4	> 1.6	≤ 1.2	1.2 to 1.4	3.01 to 4	> 4	< 2	3.01 to 4	< 2	> 4	1.51 to 2	< 2	≤ 1.5	2.01 to 4	2.01 to 3	2.01 to 4	fold induction at 1.11 µM [3, 14]: ≤ 1.5; fold induction at 1.11 µM [3, 15]: < 2; fold induction at 1.11 µM [3, 16]: 2.01 to 4; fold induction at 10 µM [3, 14]: 2.01 to 4; fold induction at 10 µM [3, 15]: 2.01 to 3; fold induction at 10 µM [3, 16]: 1.51 to 2
Cn1cnnc1C(F)(F)[C@](C)(F)c1cccc(N2Cc3c(cc(CN4CC[C@@H](F)C4)cc3C(F)(F)F)C2=O)c1 [Compound 450]	1.2 to 1.4	1.4 to 1.6	1.2 to 1.4	1.2 to 1.4	1.4 to 1.6	> 1.6	1.2 to 1.4	1.4 to 1.6	> 4	> 4	2.01 to 3	> 4	> 4	> 4	2.01 to 4	2.01 to 3	2.01 to 4	> 4	> 4	2.01 to 4	fold induction at 1.11 µM [3, 14]: 1.51 to 2; fold induction at 1.11 µM [3, 15]: < 2; fold induction at 1.11 µM [3, 16]: 1.51 to 2; fold induction at 10 µM [3, 14]: 2.01 to 4; fold induction at 10 µM [3, 15]: < 2; fold induction at 10 µM [3, 16]: 1.51 to 2
COC1CN(Cc2cc3c(c(C(F)(F)F)c2)CN(c2cccc([C@@](C)(F)C(F)(F)c4nncn4C)c2)C3=O)C1 [Compound 452, (R)-6-((3-methoxyazetidin-1-yl)methyl)-2-(3-(1,1,2-trifluoro-1-(4-methyl-4H-1,2,4-triazol-3-yl)propan-2-yl)phenyl)-4-(trifluoromethyl)isoindolin-1-one]	1.2 to 1.4	1.4 to 1.6	1.2 to 1.4	1.2 to 1.4	1.4 to 1.6	> 1.6	1.2 to 1.4	1.4 to 1.6	> 4	> 4	3.01 to 4	> 4	3.01 to 4	> 4	2.01 to 4	< 2	1.51 to 2	2.01 to 4	2.01 to 3	2.01 to 4	fold induction at 1.11 µM [3, 14]: 1.51 to 2; fold induction at 1.11 µM [3, 15]: 3.01 to 4; fold induction at 1.11 µM [3, 16]: ≤ 1.5; fold induction at 10 µM [3, 14]: 2.01 to 4; fold induction at 10 µM [3, 15]: 3.01 to 4; fold induction at 10 µM [3, 16]: 1.51 to 2
Cn1cnnc1C(F)(F)[C@](C)(F)c1cccc(N2Cc3c(cc(CN4CC[C@@H](C#N)C4)cc3C(F)(F)F)C2=O)c1 [Compound 455, (R)-1-((3-oxo-2-(3-((R)-1,1,2-trifluoro-1-(4-methyl-4H-1,2,4-triazol-3-yl)propan-2-yl)phenyl)-7-(trifluoromethyl)isoindolin-5-yl)methyl)pyrrolidine-3-carbonitrile]	1.2 to 1.4	1.4 to 1.6	1.2 to 1.4	1.2 to 1.4	1.4 to 1.6	> 1.6	1.2 to 1.4	1.4 to 1.6	> 4	> 4	3.01 to 4	> 4	> 4	> 4	2.01 to 4	> 4	2.01 to 4	> 4	> 4	2.01 to 4	fold induction at 1.11 µM [3, 14]: 1.51 to 2; fold induction at 1.11 µM [3, 15]: 2.01 to 3; fold induction at 1.11 µM [3, 16]: ≤ 1.5; fold induction at 10 µM [3, 14]: 2.01 to 4; fold induction at 10 µM [3, 15]: 3.01 to 4; fold induction at 10 µM [3, 16]: 2.01 to 4
C[C@H](Cc1nncn1C)c1cccc(NC(=O)c2cc3cc(N4CCNCC4)ccc3cn2)c1 [Compound 472, N-{3-[(2R)-1-(4-methyl-4H-1,2,4-triazol-3-yl)propan-2-yl]phenyl}-6-(piperazin-1-yl)isoquinoline-3-carboxamide]	1.2 to 1.4	1.4 to 1.6	≤ 1.2	1.2 to 1.4	1.4 to 1.6	1.4 to 1.6	≤ 1.2	1.2 to 1.4	3.01 to 4	> 4	2.01 to 3	2.01 to 3	2.01 to 3	< 2	1.51 to 2	< 2	1.51 to 2	2.01 to 4	< 2	1.51 to 2	fold induction at 1.11 µM [3, 14]: 1.51 to 2; fold induction at 1.11 µM [3, 15]: < 2; fold induction at 1.11 µM [3, 16]: ≤ 1.5; fold induction at 10 µM [3, 14]: 1.51 to 2; fold induction at 10 µM [3, 15]: < 2; fold induction at 10 µM [3, 16]: ≤ 1.5
